Measured values reported in ChEMBL document CHEMBL5236638, “Optimization of First-in-Class Dual-Acting FFAR1/FFAR4 Allosteric Modulators with Novel Mode of Action” (ACS Med Chem Lett, 2022).
pEC50: −log10 of the molar value. Values after ≈ are worked out from the molar mass of the structure shown. Active and inactive are the calls of the source. The calls are words filed in the database; no cut-off is given here.

Columns and labels:
[1] = Metabolic stability in CD-1 mouse liver S9 fraction assessed as half-life at 2 uM measured upto 40 mins in the presence of NADPH by HPLC-MS analysis; assay type: ADME, subcellular; conditions: s9, 40 min
COS-7 [2] = test: Agonist activity at N-terminal FLAG tagged human FFAR1 A66 mutant transfected in African green monkey COS-7 cells assessed as accumulation of inositol phosphate incubated for 90 mins by TopCount NXT counter based analysis; assay type: cell-based
COS-7 [3] = test: Agonist activity at N-terminal FLAG tagged human FFAR1 E65 mutant transfected in African green monkey COS-7 cells assessed as accumulation of inositol phosphate incubated for 90 mins by TopCount NXT counter based analysis; assay type: cell-based
[4] = molecular target: T1, Free fatty acid receptor 4 (Homo sapiens) (UniProt Q5NUL3); test: Agonist activity at N-terminal FLAG tagged human FFAR4 transfected in African green monkey COS-7 cells assessed as accumulation of inositol phosphate at 10 uM incubated for 90 mins by TopCount NXT counter based analysis relative to control; assay type: cell-based
T1 sequence (whole entry): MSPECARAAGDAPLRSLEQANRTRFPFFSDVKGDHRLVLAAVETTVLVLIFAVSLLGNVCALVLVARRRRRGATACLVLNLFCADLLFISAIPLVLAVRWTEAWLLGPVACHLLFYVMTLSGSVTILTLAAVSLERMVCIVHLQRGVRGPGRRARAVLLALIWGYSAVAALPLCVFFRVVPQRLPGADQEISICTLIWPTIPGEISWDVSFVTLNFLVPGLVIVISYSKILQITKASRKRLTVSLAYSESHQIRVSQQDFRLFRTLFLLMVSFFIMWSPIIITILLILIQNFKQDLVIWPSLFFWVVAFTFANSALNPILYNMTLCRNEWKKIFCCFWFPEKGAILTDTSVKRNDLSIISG

[5] = tested on: Free fatty acid receptor 1 (Homo sapiens), O14842 [S8A]; test: Agonist activity at N-terminal FLAG tagged human FFAR1 S8A mutant transfected in African green monkey COS-7 cells assessed as accumulation of inositol phosphate by measuring decrease in efficacy incubated for 90 mins by TopCount NXT counter based analysis relative to control; assay type: cell-based
Sequence of Free fatty acid receptor 1 (Homo sapiens), O14842 [S8A] (O14842 whole entry S8A): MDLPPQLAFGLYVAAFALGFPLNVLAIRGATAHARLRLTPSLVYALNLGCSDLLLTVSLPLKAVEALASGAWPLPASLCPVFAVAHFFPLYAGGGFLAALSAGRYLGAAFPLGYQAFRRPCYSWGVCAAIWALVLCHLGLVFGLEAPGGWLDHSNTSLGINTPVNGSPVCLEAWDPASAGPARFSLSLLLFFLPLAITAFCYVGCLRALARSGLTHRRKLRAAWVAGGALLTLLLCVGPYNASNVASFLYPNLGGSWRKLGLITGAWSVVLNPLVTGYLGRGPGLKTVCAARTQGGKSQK

COS-7 [6] = test: Agonist activity at N-terminal FLAG tagged human FFAR1 K259 mutant transfected in African green monkey COS-7 cells assessed as accumulation of inositol phosphate incubated for 90 mins by TopCount NXT counter based analysis; assay type: cell-based
[7] = Solubility of the compound in PBS buffer at pH 7.4; assay type: physicochemical
[8] = tested on: Free fatty acid receptor 1 (Homo sapiens), O14842 [S8A]; test: Agonist activity at N-terminal FLAG tagged human FFAR1 S8A mutant transfected in African green monkey COS-7 cells assessed as accumulation of inositol phosphate by measuring fold decrease in potency incubated for 90 mins by TopCount NXT counter based analysis; assay type: cell-based; conditions: filed as agonist
[9] = Lipophilicity, logD of the compound; assay type: physicochemical; conditions: octanol/water
[10] = molecular target: T2, Free fatty acid receptor 4 (Homo sapiens, UniProt Q5NUL3); test: Agonist activity at N-terminal FLAG tagged human FFAR4 transfected in African green monkey COS-7 cells assessed as accumulation of inositol phosphate incubated for 90 mins by TopCount NXT counter based analysis; assay type: cell-based
T2 sequence (Q5NUL3 whole entry): T1 sequence (whole entry)

[11] = molecular target: Free fatty acid receptor 1 (Homo sapiens, UniProt O14842); test: Agonist activity at N-terminal FLAG tagged human FFAR1 transfected in African green monkey COS-7 cells assessed as accumulation of inositol phosphate incubated for 90 mins by TopCount NXT counter based analysis; assay type: cell-based
Sequence of Free fatty acid receptor 1 (O14842 whole entry): as the sequence (O14842 whole entry S8A) above, with A8S counted along it

COS-7 [12] = test: Agonist activity at N-terminal FLAG tagged human FFAR1 Y12 mutant transfected in African green monkey COS-7 cells assessed as accumulation of inositol phosphate incubated for 90 mins by TopCount NXT counter based analysis; assay type: cell-based
COS-7 [13] = test: Agonist activity at N-terminal FLAG tagged human FFAR1 L262 mutant transfected in African green monkey COS-7 cells assessed as accumulation of inositol phosphate incubated for 90 mins by TopCount NXT counter based analysis; assay type: cell-based
[14] = tested on: Free fatty acid receptor 1 (Homo sapiens), O14842 [A83F]; test: Agonist activity at N-terminal FLAG tagged human FFAR1 A83F mutant transfected in African green monkey COS-7 cells assessed as accumulation of inositol phosphate by measuring fold change in potency incubated for 90 mins by TopCount NXT counter based analysis; assay type: cell-based; conditions: filed as agonist
Sequence of Free fatty acid receptor 1 (Homo sapiens), O14842 [A83F] (O14842 whole entry A83F): as the sequence (O14842 whole entry S8A) above, with A8S, A83F counted along it

[15] = tested on: Free fatty acid receptor 1 (Homo sapiens), O14842 [L262W]; test: Agonist activity at N-terminal FLAG tagged human FFAR1 L262W mutant transfected in African green monkey COS-7 cells assessed as accumulation of inositol phosphate by measuring change in efficacy incubated for 90 mins by TopCount NXT counter based analysis relative to control; assay type: cell-based
Sequence of Free fatty acid receptor 1 (Homo sapiens), O14842 [L262W] (O14842 whole entry L262W): as the sequence (O14842 whole entry S8A) above, with A8S, L262W counted along it

[16] = tested on: Free fatty acid receptor 1 (Homo sapiens), O14842 [A83F]; test: Agonist activity at N-terminal FLAG tagged human FFAR1 A83F mutant transfected in African green monkey COS-7 cells assessed as accumulation of inositol phosphate incubated for 90 mins by TopCount NXT counter based analysis; assay type: cell-based; conditions: filed as agonist
[17] = tested on: Free fatty acid receptor 1 (Homo sapiens), O14842 [K259A]; test: Agonist activity at N-terminal FLAG tagged human FFAR1 K259A mutant transfected in African green monkey COS-7 cells assessed as accumulation of inositol phosphate by measuring change in efficacy incubated for 90 mins by TopCount NXT counter based analysis relative to control; assay type: cell-based
Sequence of Free fatty acid receptor 1 (Homo sapiens), O14842 [K259A] (O14842 whole entry K259A): as the sequence (O14842 whole entry S8A) above, with A8S, K259A counted along it

SMILES | t1/2 [1] [min] | Emax [4] [%] | solubility kinetic [7] [µM] | logD [9] | pEC50 [10] | pEC50 [11] | Emax ([4]; filed as agonist) [%] | also measured
Cc1cc(OCc2nc(N)nc(NCCc3cc(Cl)ccc3Cl)n2)cc(N2CCCC2=O)c1 | 1.9 | 30 | 19 (≈ 9.26 µg/mL) | 3.46 | 8.70 | 9.00 | – | Activity (COS-7 [2]): inactive; Activity (COS-7 [3]): inactive; Efficacy [5]: 35%; Activity (COS-7 [6]): inactive; fold change (FC) [8]: 10; Activity (COS-7 [12]): inactive; Activity (COS-7 [13]): inactive; fold change (FC) [14]: 2
Cc1cc(OCc2nc(N)nc(NCC(c3cccc(Cl)c3)N3CCCC3)n2)cc(N2CCCC2=O)c1 (stereo not given) | 3 | – | 294 (≈ 153 µg/mL) | 2.79 | – | 6.21 | – | –
COC(CNc1nc(N)nc(COc2cc(C)cc(N3CCCC3=O)c2)n1)c1cccc(Cl)c1 (stereo not given) | 2 | 32 | 36 (≈ 17.4 µg/mL) | 3.52 | 7.92 | 7.82 | – | –
Cc1cc(OCCCS(C)(=O)=O)cc(C)c1-c1cccc(COc2ccc3c(c2)OC[C@H]3CC(=O)O)c1 | – | – | – | – | – | – | – | fold change (FC) [14]: 500
COc1ccc(F)c(-c2ccc(COc3ccc4c(c3)[C@]3(CC4)C[C@H]3C(=O)O)cc2[C@@H]2CCCC2(C)C)c1 | – | – | – | – | – | – | – | Efficacy [15]: -25%; Activity [16]: Active; Efficacy [17]: -25%
Cc1cc(OCc2nc(N)nc(NCCc3ccccc3N3CCOCC3)n2)cc(N2CCCC2=O)c1 | 0.9 | 30 | 119 (≈ 59.9 µg/mL) | 2.93 | 7.09 | – | – | –
Cc1ccc(Nc2nc(N)nc(COc3cccc(N4CCCC4=O)c3)n2)cc1Cl | – | – | 28 (≈ 11.9 µg/mL) | – | 6.23 | 6.09 | 50 | –
Cc1cc(OCc2nc(N)nc(NCC(C)c3cccc(Cl)c3)n2)cc(N2CCCC2=O)c1 (stereo not given) | 0.8 | 33 | 14 (≈ 6.54 µg/mL) | 3.93 | 8.00 | 8.22 | – | –
Cc1cc(OCc2nc(N)nc(NCCC3CCCCC3(F)F)n2)cc(N2CCCC2=O)c1 (stereo not given) | 0.8 | – | 55 (≈ 25.3 µg/mL) | 3.53 | – | – | – | –
Cc1cc(OCc2nc(N)nc(NC3(Cc4cccc(Cl)c4)CC3)n2)cc(N2CCCC2=O)c1 | 0.7 | – | 23 (≈ 11 µg/mL) | 3.82 | – | 7.21 | – | –
Cc1cc(OCc2nc(N)nc(NCCc3cccc(F)c3)n2)cc(N2CCCC2=O)c1 | 1.1 | 35 | 84 (≈ 36.7 µg/mL) | 3.32 | 7.54 | 7.30 | – | –
Cc1cc(OCc2nc(N)nc(NCCc3cccc(Cl)c3)n2)cc(N2CCCC2=O)c1 | 2.3 | – | 11 (≈ 4.98 µg/mL) | 3.77 | 8.22 | 8.52 | 43 | –
Cc1ccc(Nc2nc(N)nc(COc3ccc4c(C)cc(=O)oc4c3)n2)cc1Cl | – | – | < 2 | – | 6.82 | 6.85 | 45 | –
Cc1cc(OCc2nc(N)nc(NCCc3cccc4c3OC(F)(F)O4)n2)cc(N2CCCC2=O)c1 | 0.8 | – | 13 (≈ 6.48 µg/mL) | 3.42 | – | – | – | –
Cc1cc(OCc2nc(N)nc(NCCc3ccc(Cl)c(C)c3)n2)cc(N2CCCC2=O)c1 | – | 30 | – | – | 8.40 | 7.85 | – | –
Cc1cc(OCc2nc(N)nc(NCCc3c(F)cccc3F)n2)cc(N2CCCC2=O)c1 | – | – | – | – | 8.05 | 8.52 | 46 | –
Cc1ccc(Nc2nc(N)nc(COc3ccc4c(C)cc(=O)oc4c3)n2)cc1 | – | 39 | – | – | 5.92 | 5.75 | – | –
Cc1ccc(Nc2nc(N)nc(COc3cc(C#N)cc(N4CCCC4=O)c3)n2)cc1Cl | – | 26 | – | – | 4.84 | 5.38 | – | –
Cc1cc(OCc2nc(N)nc(NCCc3ccc(Cl)cc3Cl)n2)cc(N2CCCC2=O)c1 | – | 18 | – | – | 7.60 | 7.36 | – | –
COc1cccc(CCNc2nc(N)nc(COc3cc(C)cc(N4CCCC4=O)c3)n2)c1 | – | – | – | – | 7.85 | 7.92 | 46 | –
Cc1c(Cl)cc(Nc2nc(N)nc(COc3ccc4c(C)cc(=O)oc4c3)n2)cc1Cl | – | – | – | – | 5.90 | 6.22 | 68 | –
Cc1cc(OCc2nc(N)nc(Nc3ccc(C)c(Cl)c3)n2)cc(N2CCCC2=O)c1 | – | – | – | – | 6.22 | 7.70 | 50 | –
COc1cc(OCc2nc(N)nc(Nc3ccc(C)c(Cl)c3)n2)cc(N2CCCC2=O)c1 | – | – | – | – | 6.22 | 5.74 | 43 | –
Cc1ccc(Nc2nc(N)nc(COc3cc(F)cc(N4CCCC4=O)c3)n2)cc1Cl | – | – | – | – | 5.92 | 5.74 | 47 | –
Cc1ccc(Nc2nc(N)nc(COc3ccc4c(C(F)F)cc(=O)oc4c3)n2)cc1 | – | 27 | – | – | 5.80 | 5.50 | – | –
COc1ccc(CCNc2nc(N)nc(COc3cc(C)cc(N4CCCC4=O)c3)n2)cc1 | – | 34 | – | – | 6.42 | 5.83 | – | –
